“Also recorded” adds a separate entry of the source. Where two headings read alike, the source gives them in different places.
Columns and labels:
BMSB = conditions: cited from earlier work
A. hilare = conditions: Aldrich et al. 2007; Khrimian 2005; cited from earlier work
Euschistus spp. [1] = assay: Outdoor trapping with Rescue! Stink Bug Traps, synergistic attraction; format: in vivo; conditions: outdoors
[2] = tested on: brown marmorated stink bug (BMSB); assay: Field trapping Experiment 1 (Example 1): doses of racemic murgantiol vs standard attractants in Rescue! Stink Bug Traps; format: in vivo, Halyomorpha halys; conditions: for attraction of BMSB adults (mean numbers captured in baited traps): Pittsburgh, Pa., 14 days in early September, vs blank control, Duncan's test α=0.05; for attraction of BMSB adults (mean numbers captured in baited traps) / dose-response of trap catches: FIG. 2; for dose-response of trap catches: racemic murgantiol 10, 20, 40, 80 mg
Protocol: (§1) Two field trapping experiments were carried out from early to late September in home gardens/yards in Pittsburgh, Pa. In order to test the potential activity of the Harlequin bug pheromone, murgantiol, as a BMSB outdoor attractant or outdoor synergistic attractant to other known stink bug attractants, commercially available Rescue!® Stink Bug Traps (described in U.S. Pat. No. D645,534; U.S. Pat. No. D645,535; and U.S. patent application Ser. No. 13/331,394, filed Dec. 20, 2011) were used. Traps baited with different tested compounds or combinations were set up in lines, 1-1.5 m above the ground on either tree branches or fences ca. 3-5 m apart between each trap within a set, and at least 50 m between sets. For each trapping experiment, five sets of traps (i.e., five physical replicates of each treatment) were deployed with their initial trap positions within each set being randomized. To minimize positional effects and obtain more replications, stink bug collections and trap re-randomizations were carried out when ≧20 stink bugs were caught in the best traps. Each replicate lasted one to several days depending on stink bug activity. Captured stink bugs were removed from the traps and kept in plastic (polyethylene) zip-bags before returning to the laboratory for recording of the species, gender, and development status (nymphs, adult males/females), and catch. Murgantiol and the known stink bug attractants were released from dispensers [for example, 4 mil polyethylene bags (2.3×5.5 cm) or dispensers described in U.S. patent application Ser. No. 13/206,244, filed Aug. 9, 2011, incorporated herein by reference in its entirety]. Experiment 1 (Example 1) tested different doses of racemic murgantiol (MGT) in comparison with the known standard stink bug attractants [M246DT/M24DD], and the blank control. Trap catch data were converted to proportion (P) of total captured bugs within each replicate. The data were then transformed by arcsin (P)^1/2 to meet the assumptions of normality and homogeneity of variances for ANOVA (analysis of variance). Means were compared by ANOVA followed by the Duncan's multiple range test at α=0.05.

[3] = tested on: brown marmorated stink bug (BMSB); assay: Field trapping Experiment 2 (Example 2): attractant formulations with and without racemic murgantiol in Rescue! Stink Bug Traps; format: in vivo, Halyomorpha halys; conditions: outdoors, September; FIG. 3
Protocol: as §1, with “Murgantiol and the known stink bug attractants were released from dispensers [for example, 4 mil polyethylene bags (2.3×5.5 cm) or dispensers described in U.S. patent application Ser. No. 13/206,244, filed Aug. 9, 2011, incorporated herein by reference in its entirety]. Experiment 1 (Example 1) tested different doses of racemic murgantiol (MGT) in comparison with the known standard stink bug attractants [M246DT/M24DD], and the blank control. Trap catch data were converted to proportion (P) of total captured bugs within each replicate. The data were then transformed by arcsin (P)^1/2 to meet the assumptions of normality and homogeneity of variances for ANOVA (analysis of variance). Means were compared by ANOVA followed by the Duncan's multiple range test at α=0.05.” left out

Harlequin bugs = conditions: insect-produced and synthetic murgantiol; laboratory; cited from earlier work
BMSB adults = conditions: both sexes of adults, overwintering and transition periods; cited from earlier work
Euschistus spp. [4] = conditions: seven Euschistus spp.; Aldrich et al. 1991; cited from earlier work

Compound: CCC\C=C/C=C/C=C/C(=O)OC [M246DT, methyl (2E,4E,6Z)-decatrienoate]
- field attraction of BMSB (BMSB; adults (males and females) and nymphs, Aldrich et al. 2007, Khrimian 2005): field attractant for both adults (males and females) and nymphs
- attraction of BMSB (BMSB; late spring and early summer, dispersal (overwintered) adults): only weakly active
- attraction of BMSB (BMSB; mid-summer and early fall): strongly attractive to both nymphs and adults
- field attraction of A. hilare (A. hilare): field attractant

Compound: CC(CCC1OC1(C)C)C1C=CC(C)(O)CC1 (racemic) [murgantiol, 4-[3-(3,3-dimethyloxiran-2-yl)-1-methylpropyl]-1-methylcyclohex-2-en-1-ol]
- synergistic attraction together with known stink bug attractants such as M246DT and M24DD (Euschistus spp. [1]): synergistically attract
- attraction of BMSB adults (mean numbers captured in baited traps) ([2]; outdoors): active as an outdoor attractant; also recorded: comparable, if not more effective in attracting insects; also recorded: outdoor attractant for BMSBs in any dose amount
- attraction of BMSB adults (mean numbers captured in baited traps) ([2]; outdoors, listed as MGT-A): strong attraction to BMSBs at levels similar or even higher than the known standard stink bug attractants
- attraction of BMSB adults (mean numbers captured in baited traps) ([2]; outdoors, listed as MGT-B): strong attraction to BMSBs at levels similar or even higher than the known standard stink bug attractants
- attraction of BMSB adults (mean numbers captured in baited traps) ([2]; outdoors, listed as MGT-C): strong attraction to BMSBs at levels similar or even higher than the known standard stink bug attractants
- attraction of BMSB adults (mean numbers captured in baited traps) ([2]; outdoors, listed as MGT-D): strong attraction to BMSBs at levels similar or even higher than the known standard stink bug attractants
- sexes and stages attracted and captured ([2]; outdoors, September, nymphs only 5% of total catches): Both sexes of adults (ca. 1:1) and nymphs were attracted and captured
- dose-response of trap catches [2]: no significant dose-response effects
- dose-response of trap catches ([2]; listed as MGT-A): as effective as the highest dose
- effect of adding murgantiol to M246DT/M24DD attractants on BMSB trap catches (synergism) [3]: synergistically attract; also recorded: significant increases in attraction; also recorded: strong synergistic effects
- attraction of Harlequin bugs (Harlequin bugs): attracted sexually mature Harlequin bugs of both sexes
- indoor attraction of BMSB (BMSB adults): indoor attractant

Compound: CCCCC/C=C\C=C\C(=O)OC [M24DD, methyl (2E,4Z)-decadienoate]
- field attraction of Euschistus spp. (Euschistus spp. [4]): aggregation pheromone compound or field attractant
